Where two headings read alike, the source gives them in different places. Marks after values point to notes of the source that are not given here.
Key:
[1] = test system: postmenopausal women with osteoporosis; details: in vivo
Procedure: (§1) Safety evaluations performed in the ACTIVE trial included physical examinations, vital signs, 12-lead electrocardiograms, or ECGs, clinical laboratory tests and monitoring, and recording of adverse events. Specific safety assessments included pre-dose and post-dose (four hours) determination of serum calcium, determination of creatinine clearance, post-dose ECG assessments at selected visits, and assessments of postural hypotension (60 minutes post-dose) at selected clinic visits.
(§2) The ACTIVE trial also evaluated several potential safety measures, including blood calcium levels, orthostatic hypotension, nausea, dizziness, and injection-site reactions.

[2] = test system: postmenopausal women with osteoporosis; details: in vivo; remark: listed apart in the source
Procedure: All subjects received supplemental calcium (500-1000 mg) and vitamin D (400-800 IU) per local practice. […] Blood calcium levels were assessed 4-hours and 24-hours after drug administration. Subjects were monitored for adverse events (AEs) and local tolerance at the injection site at each visit. Clinical and laboratory safety parameters, electrocardiograms, were also measured at each study visit.
Efficacy and safety were assessed using all randomized patients who received at least one dose of study drug. Baseline characteristics and safety parameters were summarized using descriptive statistics. […] All hypotheses were tested at the 2-sided 5% significance level.

[3] = test system: postmenopausal women with osteoporosis; test: ACTIVE trial: adverse events; details: 18 months; abaloparatide 80 μg (n = 822), teriparatide 20 μg (n = 818)
Procedure: as §1, §2

[4] = test system: postmenopausal women with osteoporosis; test: ACTIVExtend study: fractures at month 25 (abaloparatide or placebo 18 months, then alendronate 6 months); assay type: in vivo, human; details: abaloparatide 80 μg/day or placebo 18 months
[5] = test system: postmenopausal women with osteoporosis
[6] = during alendronate treatment, ACTIVExtend

Molecule: CC[C@H](C)[C@H](NC(=O)[C@H](CO)NC(=O)[C@H](CCCCN)NC(=O)CNC(=O)[C@H](CCCCN)NC(=O)[C@H](CC(=O)O)NC(=O)[C@H](Cc1cnc[nH]1)NC(=O)[C@H](CC(C)C)NC(=O)[C@H](CC(C)C)NC(=O)[C@H](CCC(N)=O)NC(=O)[C@H](Cc1cnc[nH]1)NC(=O)[C@H](CCC(=O)O)NC(=O)[C@H](CO)NC(=O)[C@@H](NC(=O)[C@H](C)N)C(C)C)C(=O)N[C@@H](CCC(N)=O)C(=O)N[C@@H](CC(=O)O)C(=O)N[C@@H](CC(C)C)C(=O)N[C@@H](CCCNC(=N)N)C(=O)N[C@@H](CCCNC(=N)N)C(=O)N[C@@H](CCCNC(=N)N)C(=O)N[C@@H](CCC(=O)O)C(=O)N[C@@H](CC(C)C)C(=O)N[C@@H](CC(C)C)C(=O)N[C@@H](CCC(=O)O)C(=O)N[C@@H](CCCCN)C(=O)N[C@@H](CC(C)C)C(=O)N[C@@H](CC(C)C)C(=O)NC(C)(C)C(=O)N[C@@H](CCCCN)C(=O)N[C@@H](CC(C)C)C(=O)N[C@@H](Cc1cnc[nH]1)C(=O)N[C@H](C(=O)N[C@@H](C)C(N)=O)[C@@H](C)O [abaloparatide, [Glu^22,25, Leu^23,28,31, Aib^29, Lys^26,30]hPTHrP(1-34)NH2]
- AE: Hypercalcemia (serum albumin-corrected calcium value ≧10.7 mg/dL) [1]: 3.41%^†
- Anti-abaloparatide antibody titer in positive patients [2]: ≤ 1:20
- Patients with positive anti-abaloparatide antibody titer [2]: 12%
- AE: Influenza [3]: 6.3%

Molecule: alendronate [PBO/ALN]
- Fracture Rate, incident clinical fractures [4]: 7.1%
- Fracture Rate, incident non-vertebral fractures [4]: 5.5%
- Fracture Rate, major osteoporotic fractures [4]: 4.6%
- Fracture Rate, new incident vertebral fractures [4]: 4.4%
- AE: Abdominal pain, upper [5, 6]: 2.6%
- AE: Arthralgia [5, 6]: 4.7%
- AE: Back pain [5, 6]: 2.1%
- AE: Bone Pain [5, 6]: 1.2%
- AE: Diarrhea [5, 6]: 1.4%
- AE: Dyspepsia [5, 6]: 2.2%
- AE: Hypercalciuria [5, 6]: 1.6%
- AE: Hypertension [5, 6]: 2.1%
- AE: Nasopharyngitis [5, 6]: 1.4%
- AE: Pain in extremity [5, 6]: 2.4%
- AE: Upper respiratory tract infection [5, 6]: 4.5%
- AE: Urinary tract infection [5, 6]: 1.0%
- AE: Influenza ([5]; human, in vivo): 1.0%

Source: patent US20170368148A1, “USES OF A PTHrP ANALOGUE IN REDUCING FRACTURE RISK” (RADIUS HEALTH, INC., priority 2015, published 2017)
